Experimental data reported in patent US9689042B2, “Use of glycolytic pathways for inhibiting or measuring oncogenic signaling” (The Regents of the University of California, priority 2012, dated 2017).
Entries after “also recorded” stand apart in the source; their conditions may differ. d = 2'-deoxy (DNA); r = 2'-OH (RNA)

Key:
T4-2 cells [1] = assay: siRNA knockdown in T4-2 cells cultured in 3D-on top (3D-OT) lrECM; assay type: cell-based, human; settings: 3 days
Procedure: For experiments that need to be done in shorter-term (e.g. cultures of siRNA-transfected cells or for live imaging), cells were seeded at 60,000 cells per cm2 on top (3D-OT) of lrECM gels overlaid with H14 medium containing 5% (v/v) lrECM. Cells were harvested after 3 days.
Predesigned siRNA duplexes targeting GLUT3, GFPT1, GFPT2 and OGT, as well as control siRNA were obtained from Ambion. The other siRNA duplexes were chemically synthesized and purchased from Hokkaido System Science. The sequences are as follows:
For transfection of each siRNA into T4-2 cells, Lipofectamine RNAi MAX (Invitrogen) was used, according to the manufacturer's instruction. Cells were trypsinized 36 hrs after transfection and cultured in 3D-OT lrECM for 3 days before harvest.

T4-2 cells [2] = settings: for rescue of the malignant (disorganized) phenotype by supplementation: T4-2 cells reverted by IA 20 μM or 1.75 mM glucose, PEP 0.5 mM, pyruvate; for rescue of the malignant (disorganized) phenotype by supplementation / phenotypic reversion of the malignant phenotype / basal polarity / organized acinar structures / growth / proliferation (cell numbers at the colony mid-section, EdU incorporation): 3D lrECM; for phenotypic reversion of the malignant phenotype: 2DG 4 mM, IA 20 μM, OX 50 mM, Azs 20 μM, DON 20 μM, BADGP 5 mM, TM 10 ng/ml, OGM 4 ng/ml, Rapa 0.01-1.0 μM; for basal polarity / organized acinar structures / growth / proliferation (cell numbers at the colony mid-section, EdU incorporation): same inhibitor concentrations as E1
Procedure: (§1) HMT-3522 cells were cultured on tissue culture plastic (2D) and in 3D lrECM gels with H14 medium, a 1:1 mix of DMEM/F12 (UCSF Cell Culture Facility) supplemented with 250 ng/ml insulin, 10 μg/ml transferrin, 2.6 ng/ml sodium selenite, 0.1 nM β-estradiol, 1.4 μM hydrocortisone and 5 μg/ml prolactin but no serum. S1 cells were additionally supplemented with 10 ng/ml EGF. MDA-MB-231 and HCC70 cells were cultured in DMEM and RPMI1640, respectively, and were supplemented with 10% fetal bovine serum (FBS).
(§2) For 3D lrECM cultures, S1 and T4-2 cells were seeded at 840,000 and 600,000 cells per cm3 respectively in lrECM gel (Cultrex), overlaid with H14 medium. MDA-MB-231 and HCC70 cells were seeded at 625,000 cell per cm3 and overlaid with H14 medium supplemented with 1% FBS. Cells were used for each assay after 10 days, unless otherwise indicated.
Pieces of lrECM gel containing cell colonies were suspended in approximately the same volume of phosphate buffered saline (PBS) and directly spread on glass slides. After brief air-drying, colonies were fixed with 3.7% paraformaldehyde (PFA) in PBS at room temperature (RT) for 10 min, washed with PBS containing 0.1 mM glycine, and permeabilized with 1:1 methanol/acetone at −20° C. for 10 min. After blocking with IF buffer (0.2% Triton X-100, 0.1% BSA [radioimmunoassay grade], 0.05% Tween 20, 7.7 mM NaN3 in PBS) containing 10% goat serum and 1% goat F(ab′)2 anti-mouse immunoglobulin G (IgG; Caltag) at RT for 30 min, colonies were stained with anti-α6 integrin antibody (Chemicon International) at 4° C. overnight. Colonies were washed extensively with IF buffer, and stained with Alexa 568-labeled anti-rat IgG antibody at RT for 2 hr. Colonies were washed with IF buffer again, and nuclei were stained with DAPI at RT for 10 min. Slides were briefly washed with PBS and mounted with 50% glycerol in PBS.
To test whether increased glucose metabolism itself is required for oncogenic signaling events, we utilized 3D lrECM cultures of HMT-3522, a breast cancer progression series which includes non-malignant (S1) and malignant (T4-2) human breast epithelial cells from the same individual (Briand et al., 1987; Petersen et al., 1992; Rizki et al., 2008). Using these cells, we have described the involvement and reciprocity of multiple signaling pathways including EGFR, β1 integrin, PI3K-Akt and MEK-ERK in oncogenic events (Beliveau et al., 2010; Bissell et al., 2005). […] We thus used this “phenotypic reversion” of the cancer cells as an assay to examine how the signaling integration plan of the breast acini could involve glucose metabolism.

[3] = tested on: EGFR, β1 integrin, Akt, MEK, GLUT3, glycolytic enzymes in T4-2 cells; assay: Western blots of signaling intermediates, GLUT3 and metabolic enzymes in 3D lrECM cultures of T4-2 cells; assay type: cell-based, human; settings: 3D lrECM; for recovery of β1 integrin expression and Akt activity by supplementation: T4-2 cells reverted by IA 20 μM or 1.75 mM glucose, PEP 0.5 mM, ESCA 20 μM
Procedure: Cell colonies were separated from lrECM gels by shaking in PBS containing 5 mM EDTA and the proteinase inhibitor cocktail set I (Calbiochem) on ice for 30 min. Cells were lysed in lysis buffer (1% NP-40, 1% deoxycholate, 2% SDS, 150 mM NaCl, 20 mM Tris-HCl [pH 7.4] plus 5 mM EDTA and protease inhibitor cocktail set I and phosphatase inhibitor cocktail set I [Calbiochem]) and sonicated three times for 30 sec each. Proteins were separated by SDS-PAGE, transferred to nitrocellulose membranes, and probed with antibodies against the following proteins: phosphorylated MEK, MEK, phosphorylated Akt, Akt, phosphorylated AMPK, AMPK, p70S6K, phosphorylated p70S6K, CHOP, EPAC1 (Cell Signaling), β1 integrin, EGFR, activated EGFR, HIF-1α, (Chemicon International), PFKP (Abgent), GAPDH, GLUT3 (GeneTex), LDHA, PDHE1α, DLAT, DLD, HIF-3α, Rap1, sAC, EPAC2, OGT, Lamin A/C (Santa Cruz Biotechnology), Aldolase (Polysciences), GFPT (ProteinTech Group), HIF-2α (Abcam), and HA-tag (Covance). After probing with HRP-conjugated secondary antibodies, blots were developed using SuperSignal West Femto chemiluminescence reagent (Pierce Biotechnology). Images were captured using Fluor Chem 8900 imager (Alpha Innotech).

Rap1 = assay: Measurement of Rap1 activity (GST-RalGDS-RBD pull-down) in T4-2 cells; assay type: cell-based, human; settings: T4-2 cells treated with IA 20 μM or 1.75 mM glucose; PEP 0.5 mM, ESCA 20 μM
Procedure: Rap1 activity was measured as described previously (Itoh et al., 2007). Briefly, cell colonies were extracted from lrECM as described above, and lysed in lysis buffer (50 mM Tris-HCl [pH 7.4], 500 mM NaCl, 1% NP40, 2.5 mM MgCl2, 10% glycerol, 10 μg/ml aprotinin and 10 μg/ml leupeptin) at 4° C. for 30 min. Lysates were cleared by centrifugation at 15,000×g at 4° C. for 15 min. Supernatants (containing 300 μg protein in 300 μl) were incubated with 15 μg of GST-tagged RalGDS-RBD fusion protein immobilized on Glutathione Sepharose 4B beads (GE Healthcare), at 4° C. for 1 hr. Beads were washed trice in lysis buffer and resuspended in Laemmli buffer. Samples were separated by SDS-PAGE, followed by transfer to polyvinylidene fluoride membranes (0.2 μm pore) and immunoblotting using anti-Rap1 antibody.

T4-2 cells [4] = assay: Mitochondrial activity (MitoTracker oxidation) assay in 3D lrECM; assay type: cell-based, human
Procedure: (§3) Cells suspended in 200 μl lrECM were seeded in 12 well glass-bottom plates (14 mm diameter; MatTek Corporation). Gels were overlaid with 500 μl H14 media and cultured for 10 days before each assay unless otherwise described.
For mitochondrial activity, we slightly modified the method described previously (Morici et al., 2007). Briefly, cells were incubated with 2 μM MitoTracker® Orange CM-H2 TMRos (Invitrogen) for 1 hour and fixed with PFA as above. Cells were counterstained with Hoechst 33342 (Invitrogen), which is known also to bind to DNA stoichiometrically, then MitoTracker and Hoechst staining were measured by taking z-section images from top to bottom of the gels using confocal microscopy.
(§4) In each assay, one well, containing only lrECM, was made for background measurements. Glucose uptake measured by 2DG uptake, lactate production and MitoTracker staining were normalized using total DNA levels, and presented relative to that of control (either S1 or non-treated T4-2 cells).

T4-2 cells [5] = assay: Lactate production assay in 3D lrECM; assay type: cell-based, human
Procedure: as §3
For lactate production, on day 9, conditioned-media were harvested to measure lactate remaining in the 200 μl of the gel (assuming equilibrium between medium and gel, C0 nmol/μl). […] After 24 hours, total culture medium was harvested for measurement of final lactate concentrations (C nmol/μl) and total volumes (V μl) of the conditioned-media, and the cells in gel were fixed with PFA as above. Concentration of lactate in each sample was measured using a lactate assay kit (BioVision). Net lactate production within 24 hours (N) was calculated as follows: N=C×(V+200)−C0×200. Fixed cells were stained with DRAQ5, to measure total level of DNA as a surrogate for number of cells, and the staining was measured as above.
as §4

T4-2 cells [6] = assay: Glucose uptake assay (IRDye800CW-2DG) in 3D lrECM; assay type: cell-based, human
Procedure: as §3
For glucose uptake assay, cells were incubated with 1 μM of IRDye800CW-2DG (LI-COR Biosciences) for 1 hour, fixed within gels with 4% paraformaldehyde (PFA) in PBS for 30 min. and stained with DRAQ5 (1:10000 dilution), an infrared dye that binds stoichiometrically to DNA, for 30 min. Cells were extensively washed with PBS, then IRDye800-2DG uptake together with DRAQ5 staining were measured by using Odyssey Infrared Imaging System (LI-COR Biosciences).
as §4

S1 cells = assay: 3D lrECM culture of non-malignant S1 cells: acinar morphology and growth; assay type: cell-based, human; settings: 2DG 4 mM, OGM 4 ng/ml
Procedure: as §1, §2
Pieces of lrECM gel containing cell colonies were suspended in approximately the same volume of phosphate buffered saline (PBS) and directly spread on glass slides. After brief air-drying, colonies were fixed with 3.7% paraformaldehyde (PFA) in PBS at room temperature (RT) for 10 min, washed with PBS containing 0.1 mM glycine, and permeabilized with 1:1 methanol/acetone at −20° C. for 10 min. […]

sAC siRNA: chemically synthesized siRNA duplex targeting sAC, SEQ ID NO: 7 and SEQ ID NO: 8 (chain 1 AUGUAGCCUGGAGAUCCAUTT; chain 2 AUGGAUCUCCAGGCUACAUTT; sugars from the 5' end r19 d2, backbone not given here)
phenotype after siRNA knockdown (reversion) (T4-2 cells [1]): induced phenotypic reversion

GAPDH siRNA: chemically synthesized siRNA duplex targeting GAPDH, SEQ ID NO: 1 and SEQ ID NO: 2 (chain 1 GAGCCACAUCGCUCAGACA; chain 2 UGUCUGAGCGAUGUGGCUC; listed as RNA, chemistry not fully specified)
phenotype after siRNA knockdown (reversion) (T4-2 cells [1]): essentially reproduced the above results

C=C(OP(=O)(O)O)C(=O)O [PEP, phosphoenolpyruvate]
rescue of the malignant (disorganized) phenotype by supplementation (T4-2 cells [2]; ESCA 20 μM): reproduced the disorganized structure
recovery of β1 integrin expression and Akt activity by supplementation [3]: partially recovered
Rap1 reactivation by supplementation (Rap1): Rap1 reactivation

CC(=O)N[C@H]1[C@@H](OCc2ccccc2)O[C@H](CO)[C@H](O)[C@@H]1O [BADGP, Benzyl-2-acetamido-2-deoxy-α-D-galactopyranoside]
phenotypic reversion of the malignant phenotype (T4-2 cells [2]; T4-2 cells): do induce phenotypic reversion; also recorded: induced phenotypic reversion

CC(Sc1nc2ccccc2[nH]1)C(=O)N/N=C/c1cc(Br)ccc1O (centres unmarked) [KH7]
reactivation (disorganization, Rap1, β1 integrin and Akt) on raising glucose from 1.75 mM to 5.5 mM (T4-2 cells [2]; T4-2 cells reverted in 1.75 mM glucose, then 5.5 mM glucose with KH7): almost completely abolished
phenotypic reversion of the malignant phenotype (T4-2 cells [2]; T4-2 cells): do induce phenotypic reversion

[N-]=[N+]=CC(=O)OC[C@H](N)C(=O)O [AZS, Azaserine]
phenotypic reversion of the malignant phenotype (T4-2 cells [2]; T4-2 cells): do induce phenotypic reversion; also recorded: induced the repertoire of the reversion phenotype
basal polarity / organized acinar structures (T4-2 cells [2]; T4-2 cells): re-establishment of tissue polarity
growth / proliferation (cell numbers at the colony mid-section, EdU incorporation) (T4-2 cells [2]; T4-2 cells): growth arrest
levels and/or activities of EGFR, β1 integrin, Akt and MEK (oncogenic signaling) ([3]; T4-2 cells, Western blot): suppression of activation of oncogenic signaling
EGFR expression and activity ([3]; T4-2 cells, Azs 20 μM, DON 20 μM): significantly down-regulated
mitochondrial activity (oxidation) (T4-2 cells [4]): remained unaltered
lactate production (T4-2 cells [5]): significantly down-regulated
glucose uptake (T4-2 cells [6]): significantly down-regulated

CC[C@H]1/C=C/C=C/C[C@@H](C)[C@H](O)[C@@](C)(O)C(=O)[C@@H](C)[C@H](O)[C@@H](C)C(=O)[C@@H](C)[C@H](O)[C@@H](C)/C=C/C(=O)O[C@@H]2[C@H](C)[C@H](CC1)O[C@]1(CC[C@H](C)[C@H](C[C@@H](C)O)O1)[C@H]2C [OGM, Oligomycin]
phenotypic reversion of the malignant phenotype (T4-2 cells [2]; T4-2 cells): do not induce phenotypic reversion
basal polarity / organized acinar structures (T4-2 cells [2]; T4-2 cells): did not induce organized structures
growth / proliferation (cell numbers at the colony mid-section, EdU incorporation) (T4-2 cells [2]; T4-2 cells): suppressing proliferation significantly
acinar morphology, basal polarity and growth rate of non-malignant cells (S1 cells): lost basal tissue polarity

CO[C@@H]1[C@@H]2OP(=O)(O)OC[C@H]2O[C@H]1n1c(Sc2ccc(Cl)cc2)nc2c(N)ncnc21 [ESCA, 8CPT-2′-OMe-cAMP]
rescue of the malignant (disorganized) phenotype by supplementation (T4-2 cells [2]; ESCA 20 μM): loss of tissue polarity
restoration of proliferation by supplementation (T4-2 cells [2]; T4-2 cells treated with IA 20 μM or 1.75 mM glucose, ESCA 20 μM): did not restore proliferation to the level of non-treated cultures
recovery of β1 integrin expression and Akt activity by supplementation [3]: partially restored
Rap1 reactivation by supplementation (Rap1): reactivated Rap1

Tunicamycin [TM]
phenotypic reversion of the malignant phenotype (T4-2 cells [2]; T4-2 cells): do not induce phenotypic reversion; also recorded: did not lead to phenotypic reversion
cell death (T4-2 cells [2]; T4-2 cells, increasing amounts of tunicamycin (data not shown)): induced significant cell death
